# Measured values reported in paper PMC9814091, “The making of a potent L-lactate transport inhibitor” (Communications Chemistry, 2021).
# Like-named read-outs stand apart in the source and are kept apart here.
# How the values were obtained:
# SfMCT [1] = target: T1, SfMCT (Syntrophobacter fumaroxidans, UniProt A0LNN5); design: method as in PMID 31201333; details: cited from earlier work
# T1 construct: expressed in transfected cells; host or cells: E. coli JA202 (MC4100 glcA::cat lldP::kan) transformed with pEXT20-SfMCT-3C-10His
# T1 sequence (A0LNN5 1-412): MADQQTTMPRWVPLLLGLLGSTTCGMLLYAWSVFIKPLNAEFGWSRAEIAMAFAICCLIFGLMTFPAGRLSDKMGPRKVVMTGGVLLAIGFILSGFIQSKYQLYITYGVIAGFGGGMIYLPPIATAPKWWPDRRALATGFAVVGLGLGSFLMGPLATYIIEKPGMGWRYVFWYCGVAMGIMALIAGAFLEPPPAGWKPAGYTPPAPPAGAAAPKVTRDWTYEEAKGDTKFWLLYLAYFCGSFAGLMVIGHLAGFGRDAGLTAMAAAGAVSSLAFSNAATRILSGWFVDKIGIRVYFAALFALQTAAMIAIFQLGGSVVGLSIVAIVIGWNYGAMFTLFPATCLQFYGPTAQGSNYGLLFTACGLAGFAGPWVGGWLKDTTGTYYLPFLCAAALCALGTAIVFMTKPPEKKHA
# [2] = test system: E. coli L-lactate permeases (i.e., LldP and GlcA); assay: [14C]L-lactate transport into E. coli MC4100 (test for a protonophoric effect); format: cell-based; details: 100 µM compound
# SfMCT [3] = target: T1, SfMCT; assay: cell-based; format: cell-based; details: for times more potent than BA (starting compound): ratio of Ki values versus BA
# Text: The previously characterized ligand binding site provides space to accommodate molecules that are larger than TSA. […] Only molecules containing one carboxylate-group were considered (i.e., monocarboxylates) as R280 (TM8) is the only positively-charged residue in the ligand binding site region. […] The binding site also contains hydrophobic and aromatic residues, which can be involved in hydrophobic and π-stacking interactions with bound molecules. Therefore, the focus of the screen was set on aromatic monocarboxylates, which are summarized in Supplementary Fig. 1. To evaluate the inhibitory effect of the selected molecules, an inhibition assay was set up where the transport of [^14C]L-lactate through SfMCT was measured in the absence and presence of different inhibitors at decreasing concentrations. In a first step, the inhibitory effects of BA, as well as hydroxylated and methylated BA derivatives on L-lactate transport, were investigated at a concentration of 500 µM (Fig. 1A, red).
# (§1) Uptake experiments were done as described previously[6],[40]. Overnight precultures of E. coli JA202 (MC4100 glcA::cat lldP::kan)[42], which were transformed with a plasmid carrying SfMCT (pEXT20-SfMCT-3C-10His), were diluted 1:200 into LB-medium supplemented with 100 μg/ml ampicillin. Cultures were grown at 37 °C and 180 r.p.m. in an incubator shaker (Multitron, Infors HT). At OD600 ~0.5, isopropyl-β-D-thiogalactopyranoside was added to the culture to a final concentration of 250 µM to induce SfMCT expression. In the case of E. coli MC4100 (DSM 6574, German Collection of Microorganisms and Cell Cultures), an overnight preculture was diluted 1:200 into LB-medium supplemented with 50 μg/ml streptomycin and grown at 37 °C and 180 r.p.m. in an incubator shaker (Multitron, Infors HT). Bacteria were harvested 4 h post-induction (E. coli JA202) or 6 h post-inoculation (E. coli MC4100) (5200 × g, 10 min, room temperature). The supernatant was discarded and the bacteria were gently resuspended in uptake buffer (20 mM Bis-Tris propane-HCl (pH 6.7), 250 mM KCl). The density of the bacteria suspension was adjusted to OD600 12. Transport experiments were done in a reaction volume of 50 µl, which consisted of 20 µl cell-suspension (2.4 × 10^8 bacteria), 10 µl substrate master mix (67 µM sodium L-lactate spiked with [14C(U)] L-lactic acid sodium salt ([^14C]L-lactate, American Radiolabeled Chemicals) to a specific activity of 0.15 Ci/mmol) and 20 µl monocarboxylate inhibitor solution. […] All monocarboxylate inhibitors were purchased from Merck (i.e., SigmaAldrich) with the exception of 6-methyl-salicylate (6MSA) that was purchased from Fluorochem. Uptake experiments were performed in 2 ml reaction tubes (Eppendorf) at 30 °C under agitation (1000 r.p.m., Thermomixer compact, Eppendorf). After 30 min, reactions were stopped by adding 900 μl stop buffer (20 mM HEPES-NaOH (pH 7.5), 150 mM NaCl) followed by centrifugation (21,000 × g, 4 min, room temperature). Pelleted bacteria were then washed two times with 900 μl stop buffer to remove free radioligand. Finally, bacteria were lysed using 50 μl 5% (w/v) sodium dodecylsulfate and transferred into a 96-well plate (Optiplate, PerkinElmer). 150 µl scintillation cocktail (MicroScint 40, PerkinElmer) were added to each well before measuring each well for 2 min with a scintillation counter (TopCount NXT, PerkinElmer). For data analysis Prism6 (GraphPad Software) was used.
# SfMCT [4] = target: T1, SfMCT; assay: Transport assay with radiolabeled monocarboxylates as potential SfMCT substrates; format: cell-based; details: 40 µM 14C-labeled compound, 0.1 µCi per reaction
# SfMCT Y331F mutant = target: T2, SfMCT Y331F mutant (Syntrophobacter fumaroxidans, UniProt A0LNN5, Y331F); format: cell-based; details: 25 µM 1OHN2C; 10 µM N2C, 3PP, 2M3PP
# T2 construct: expressed in transfected cells; host or cells: E. coli JA202 (inferred: same uptake protocol as wild type)
# T2 sequence (A0LNN5 whole entry Y331F): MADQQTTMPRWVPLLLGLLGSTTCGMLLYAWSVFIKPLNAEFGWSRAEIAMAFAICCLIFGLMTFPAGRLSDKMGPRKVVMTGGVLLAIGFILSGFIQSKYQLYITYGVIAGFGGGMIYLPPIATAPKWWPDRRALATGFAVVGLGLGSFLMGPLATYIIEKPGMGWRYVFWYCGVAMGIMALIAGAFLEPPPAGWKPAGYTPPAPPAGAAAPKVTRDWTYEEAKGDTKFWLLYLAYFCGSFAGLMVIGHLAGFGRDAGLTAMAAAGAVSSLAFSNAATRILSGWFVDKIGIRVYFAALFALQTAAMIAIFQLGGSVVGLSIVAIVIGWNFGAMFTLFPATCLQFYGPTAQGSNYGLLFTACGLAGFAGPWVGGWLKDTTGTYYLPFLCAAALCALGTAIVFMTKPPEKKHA
# Procedure: as §1, with “Finally, bacteria were lysed using 50 μl 5% (w/v) sodium dodecylsulfate and transferred into a 96-well plate (Optiplate, PerkinElmer). 150 µl scintillation cocktail (MicroScint 40, PerkinElmer) were added to each well before measuring each well for 2 min with a scintillation counter (TopCount NXT, PerkinElmer). For data analysis Prism6 (GraphPad Software) was used.” left out
# [5] = inhibitor 10 µM, hydroxylated and methylated 3PP derivatives (Fig. 1A, magenta)
# [6] = inhibitor 100 µM, methylated SA derivatives and 3OH4MBA (Fig. 1A, blue)
# [7] = inhibitor 500 µM, BA and hydroxylated and methylated BA derivatives (Fig. 1A, red)
# [8] = [14C]L-lactate uptake, SfMCT-expressing E. coli JA202, pH 6.7, 30 °C, 30 min, read-out: Ki (inhibition of L-lactate transport)
# [9] = inhibitor 25 µM, naphthoate derivatives (Fig. 1A, orange)
compound,measurement,setting,value
"O=C(O)c1ccccc1S [TSA, thiosalicylate]",transport of the compound by SfMCT,SfMCT [1],non-transported
"N#CC(C#N)=NNc1cccc(Cl)c1 [CCCP, carbonyl cyanide 3-chlorophenylhydrazone, reference compound]",effect on [14C]L-lactate transport activity of E. coli MC4100,[2],reduced the uptake activity almost
"O=C(O)c1ccccc1 [BA, benzoate]",Ki,SfMCT [3],431 µM
"O=C(O)CCc1cccc(O)c1 [3OH3PP, 3-(3-hydroxyphenyl)-propionate]",inhibitory effect on L-lactate transport in the screen,SfMCT [3]; [5],strongest L-lactate transport reduction among the tested hydroxylated derivatives
"O=C(O)/C=C/c1ccccc1 [CA, trans-cinnamate]",Ki,SfMCT [3],2.5 µM
"Cc1ccc(C(=O)O)cc1O [3OH4MBA, 3-hydroxy-4-methyl-benzoate]",inhibitory effect on L-lactate transport in the screen,SfMCT [3]; [6],strongly reduced inhibition of L-lactate transport
"O=C(O)c1ccccc1O [SA, salicylate]",Ki,SfMCT [3],362 µM
same,inhibitory effect on L-lactate transport in the screen,SfMCT [3]; [7],strongest decrease in L-lactate transport activity
same,transport of the radiolabeled compound by SfMCT,SfMCT [4],does not transport
"O=C(O)c1ccc2ccccc2c1 [N2C, 2-naphthoate]",Ki,SfMCT [3]; [8],2.4 µM
same,inhibitory effect on L-lactate transport in the screen,SfMCT [3]; [9],strongest reduction of L-lactate transport among the tested naphthoate derivatives
same,reduction of L-lactate transport inhibition by the Y331F mutation versus wild type,SfMCT Y331F mutant,~ 2 fold
same,effect on [14C]L-lactate transport activity of E. coli MC4100,[2],no significant reduction
"Cc1ccc(C(=O)O)cc1 [4MBA, 4-methyl-benzoate]",Ki,SfMCT [3],13.4 µM
same,inhibitory effect on L-lactate transport in the screen,SfMCT [3]; [7],strongest reduction of L-lactate transport activity
same,times more potent than BA (starting compound),SfMCT [3],~ 30 times
"O=C(O)CCc1ccccc1 [3PP, 3-phenylpropionate]",Ki,SfMCT [3],0.812 µM
same,inhibitory effect on L-lactate transport in the molecular ruler experiment,"SfMCT [3]; BA, PA, 3PP and 4PB compared (Fig. 1A, black)",most potent inhibitor
same,times more potent than BA (starting compound),SfMCT [3],~ 530 times
same,effect on [14C]L-lactate transport activity of E. coli MC4100,[2],no significant reduction
same,transport of the radiolabeled compound by SfMCT,SfMCT [4],does not transport
"Cc1ccc(C(=O)O)c(O)c1 [4MSA, 4-methyl-salicylate]",Ki,SfMCT [3],24.4 µM
same,inhibitory effect on L-lactate transport in the screen,SfMCT [3]; [6],strongest reduction of L-lactate transport among the methylated SA-derivatives
"O=C(O)c1ccc2ccccc2c1O [1OHN2C, 1-hydroxy-2-naphthoate]",Ki,SfMCT [3],16.2 µM
same,inhibitory effect on L-lactate transport in the screen,SfMCT [3]; [9],strongest reduction of L-lactate transport among the tested naphthoate derivatives
same,reduction of L-lactate transport inhibition by the Y331F mutation versus wild type,SfMCT Y331F mutant,~ 2 fold
same,effect on [14C]L-lactate transport activity of E. coli MC4100,[2],no significant reduction
"Cc1ccccc1CCC(=O)O [2M3PP, 3-(2-methylphenyl)-propionate]",Ki,SfMCT [3]; [8],0.469 µM
same,inhibitory effect on L-lactate transport in the screen,SfMCT [3]; [5],strongest inhibitory effect on L-lactate transport among the tested methylated derivatives
same,times more potent than BA (starting compound),SfMCT [3],~1000 times
same,reduction of L-lactate transport inhibition by the Y331F mutation versus wild type,SfMCT Y331F mutant,~ 2 fold
same,effect on [14C]L-lactate transport activity of E. coli MC4100,[2],no significant reduction
